In article PMC5855359, “A Statistical Thermodynamic Model for Ligands Interacting With Ion Channels: Theoretical Model and Experimental Validation of the KCNQ2 Channel” (Frontiers in Pharmacology, 2018):

Target: T1, KCNQ2 (Homo sapiens, UniProt O43526)
T1 construct: WT KCNQ2 homotetrameric channel expressed in CHO cells
Assay: whole-cell voltage clamp in transfected CHO cells, concentration-response of outward current potentiation
Type: cell-based

T1 sequence (O43526 whole entry): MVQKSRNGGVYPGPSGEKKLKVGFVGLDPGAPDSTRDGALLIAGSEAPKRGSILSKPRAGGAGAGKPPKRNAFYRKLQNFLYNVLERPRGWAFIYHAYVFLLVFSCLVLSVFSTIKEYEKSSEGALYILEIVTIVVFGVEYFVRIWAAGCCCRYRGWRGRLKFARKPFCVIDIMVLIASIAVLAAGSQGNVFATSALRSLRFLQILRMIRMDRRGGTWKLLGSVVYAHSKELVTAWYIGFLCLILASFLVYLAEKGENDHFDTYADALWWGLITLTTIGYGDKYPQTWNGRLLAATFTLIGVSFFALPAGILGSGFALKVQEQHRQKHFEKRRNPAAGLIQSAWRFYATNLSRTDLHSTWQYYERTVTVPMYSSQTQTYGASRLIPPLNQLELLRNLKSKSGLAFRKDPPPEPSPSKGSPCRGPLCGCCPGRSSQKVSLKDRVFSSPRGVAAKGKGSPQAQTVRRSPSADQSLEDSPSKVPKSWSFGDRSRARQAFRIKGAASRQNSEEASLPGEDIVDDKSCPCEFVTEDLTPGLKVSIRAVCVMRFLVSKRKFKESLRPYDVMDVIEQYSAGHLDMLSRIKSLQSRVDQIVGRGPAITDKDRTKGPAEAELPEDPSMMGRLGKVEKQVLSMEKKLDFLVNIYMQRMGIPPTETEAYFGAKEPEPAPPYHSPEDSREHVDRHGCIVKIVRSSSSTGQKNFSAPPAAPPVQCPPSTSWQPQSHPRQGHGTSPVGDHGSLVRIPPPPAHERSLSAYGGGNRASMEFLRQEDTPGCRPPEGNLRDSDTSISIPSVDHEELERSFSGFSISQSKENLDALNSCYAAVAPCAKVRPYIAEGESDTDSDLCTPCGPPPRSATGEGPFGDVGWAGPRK

- EC50: ~5.8 µM
SMILES: O=C(Nc1ccc(Cl)nc1)c1ccc(F)cc1 [ztz240, N-(6-chloro-pyridin-3-yl)-4-fluorobenzamide]
